Data on 3 molecules can be found in US12371464B2, “Polypeptides and uses thereof” (MEDIMMUNE LIMITED, priority 2020, dated 2025).

For data set [1], the target named is T1, human amylin receptor (calcitonin receptor co-expressed with receptor activity modifying protein, RAMP3) (hAMYR3) (Homo sapiens, UniProt O60896+P30988).
T1 construct: expressed in transfected cells
T1 sequence (P30988 25-474): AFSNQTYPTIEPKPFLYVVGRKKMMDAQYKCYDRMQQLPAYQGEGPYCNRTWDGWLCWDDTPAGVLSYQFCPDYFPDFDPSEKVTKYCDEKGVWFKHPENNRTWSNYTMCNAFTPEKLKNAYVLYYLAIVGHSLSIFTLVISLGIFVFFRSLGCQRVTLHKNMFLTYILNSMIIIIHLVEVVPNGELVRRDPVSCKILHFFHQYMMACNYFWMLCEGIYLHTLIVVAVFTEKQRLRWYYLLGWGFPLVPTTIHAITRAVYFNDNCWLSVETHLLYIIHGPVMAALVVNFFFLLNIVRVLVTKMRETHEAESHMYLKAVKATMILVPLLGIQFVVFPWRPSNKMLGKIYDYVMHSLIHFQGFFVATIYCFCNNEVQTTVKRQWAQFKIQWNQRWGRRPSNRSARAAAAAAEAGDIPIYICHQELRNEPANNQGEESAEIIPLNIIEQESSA
T1 sequence (O60896 24-148 partner): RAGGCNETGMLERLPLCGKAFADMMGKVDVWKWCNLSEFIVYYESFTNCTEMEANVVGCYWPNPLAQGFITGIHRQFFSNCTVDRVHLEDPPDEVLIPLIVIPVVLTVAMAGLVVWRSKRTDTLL
Briefly: cAMP production in 1321N1 cells with stable recombinant expression of human amylin receptor (hAMYR3). Format: cell-based. The note with it: for pEC50: cAMP production, 1321N1 cells expressing human amylin3 receptor. The method, then:
(§1) The functional activities of lipidated pramlintide analogue peptides, such as cAMP production, were tested in 1321N1 cell line with stable recombinant expression of human calcitonin receptor (hCTR) or human amylin receptor (calcitonin receptor co-expressed with receptor activity modifying protein, RAMP3) (hAMYR3) or HEK cells with stable recombinant expression of rat calcitonin receptor (rat CTR) or rat amylin receptor (calcitonin receptor co-expressed with receptor activity modifying protein, RAMP3) (Rat AMYR3).
(§2) Cryopreserved cell stock was thawed rapidly in a water-bath, suspended in assay buffer (0.1% BSA (Sigma #A3059) in HBSS (Sigma #H8264) with 25 mM HEPES, pH 7.4 and containing 0.5 mM IB MX (Sigma #17018)) and spun at 240×g for 5 minutes. Cells were re-suspended in assay buffer at a batch-dependent optimized concentration (e.g. hCTR cells at 0.125×10^5 cells/mL, hAMYR3 cells at 0.125×10^5 cells/mL, rat CTR cells at 1×10^5 cells/mL, rat AMYR3 at 2×10^5 cells/mL).
(§3) The test peptide stock was prepared in DMSO and diluted in assay buffer to reach stated concentrations and transferred in duplicates into a 384-black shallow well microtitre assay plate (Corning #3676). Cells were added to the assay plate, incubated at room temperature for 30 minutes and the CAMP level measured using CAMP dynamic 2 HTRF kit (Cisbio, Cat #62AM4PEJ), following the two step protocol as per manufacturer's recommendations. The plates were read on an Envision (Perkin Elmer) using excitation wavelength of 320 nm and emission wavelengths of 620 nm & 665 nm.
(§4) Data was transformed to % Delta F as described in the manufacturer's guidelines and analyzed as percent activation of maximal amylin or calcitonin effect by 4-parameter logistic fit to determine EC50 values. The selectivity of a peptide to hAMYR vs hCTR is defined as a ratio of EC50 values at the two receptors.
Background: Changes in cAMP serve as a functional read-out for many G protein-coupled receptors.

The target of data set [2] is T2, human calcitonin receptor (hCTR) (Homo sapiens, UniProt P30988).
T2 construct: expressed in transfected cells
T2 sequence (P30988 25-474): T1 sequence (P30988 25-474)
Briefly: cAMP production in 1321N1 cells with stable recombinant expression of human calcitonin receptor (hCTR). Format: cell-based. To be noted: 1321N1 cells expressing human calcitonin receptor. The method, then: as §1, §2, §3, §4

For data set [3] the following is noted: cited from earlier work.

pEC50: −log10 of the molar value. Numbered stars: 1 amine (or outer) side, 2 acyl side, 3 side chain; on linkers, the order of the positions; unused ones are H or OH. Bridge positions count the residues as written; N and C are the ends. Square brackets hold non-standard residues; d marks the D form. Side chains are listed from the residue outwards. Ends that are not written are not given here. Peptide text beside a SMILES is read from it. * marks the point of attachment. C20 diacid = O=C(O)CCCCCCCCCCCCCCCCCCC(=O)*; C18 diacid = O=C(O)CCCCCCCCCCCCCCCCC(=O)*; γGlu = O=C(O)[C@H](CCC(=O)[*:2])N[*:1]; Aib = CC(C)(N)C(=O)O

Broadly, the pEC50 is −log10 of the EC50, conventionally taken in molar units. In the case of `CC[C@H](C)[C@H](NC(=O)[C@H](C)NC(=O)[C@@H]1CCCN1C(=O)[C@H](Cc1ccccc1)NC(=O)[C@H](CC(N)=O)NC(=O)[C@@H]1CCCN1C(=O)[C@H](CO)NC(=O)[C@H](CO)NC(=O)[C@H](Cc1c[nH]cn1)NC(=O)[C@@H](NC(=O)[C@H](CC(C)C)NC(=O)[C@H](Cc1c[nH]c2ccccc12)NC(=O)[C@H](CC(N)=O)NC(=O)[C@H](C)NC(=O)[C@H](CC(C)C)NC(=O)[C@H](CCCNC(=N)N)NC(=O)[C@H](CCC(N)=O)NC(=O)[C@@H](NC(=O)[C@H](C)NC(=O)[C@@H]1CSSC[C@H](NC(=O)[C@@H](N)CCCCNC(=O)CC[C@H](NC(=O)CC[C@H](NC(=O)CCCCCCCCCCCCCCCCCCC(=O)O)C(=O)O)C(=O)O)C(=O)N[C@@H](CC(N)=O)C(=O)N[C@@H](C)C(=O)N[C@@H](C)C(=O)N[C@@H]([C@@H](C)O)C(=O)N1)[C@@H](C)O)C(C)C)C(=O)N[C@@H](CC(C)C)C(=O)N[C@@H](CO)C(=O)N1CCC[C@H]1C(=O)N[C@H](C(=O)N[C@@H](CC(N)=O)C(=O)N[C@H](C(=O)NCC(=O)N[C@@H](CO)C(=O)N[C@@H](CC(N)=O)C(=O)N[C@H](C(=O)N[C@@H](Cc1ccc(O)cc1)C(N)=O)[C@@H](C)O)C(C)C)[C@@H](C)O` [Peptide 120] (H-K([γGlu-γGlu-C20 diacid])CNAATCATQRLANWLVHSSPNFPAILSPTNVGSNTY-NH2; disulfide 2-7; N-terminus assumed), the pEC50 in data set [1] is 8.75; in data set [2], 7.97.
On to `CC[C@H](C)[C@H](NC(=O)[C@@H]1CCCN1C(=O)CNC(=O)[C@H](Cc1ccccc1)NC(=O)[C@H](CC(N)=O)NC(=O)C(C)(C)NC(=O)[C@H](CO)NC(=O)[C@H](CO)NC(=O)[C@H](Cc1c[nH]cn1)NC(=O)[C@@H](NC(=O)[C@H](CC(C)C)NC(=O)[C@H](Cc1ccccc1)NC(=O)[C@H](CC(N)=O)NC(=O)[C@H](C)NC(=O)[C@H](CC(C)C)NC(=O)[C@H](CCCNC(=N)N)NC(=O)[C@H](CCC(N)=O)NC(=O)[C@@H](NC(=O)[C@H](C)NC(=O)[C@@H]1CSSC[C@H](NC(=O)[C@H](CCCCN)NC(=O)CC[C@H](NC(=O)CCCCCCCCCCCCCCCCC(=O)O)C(=O)O)C(=O)N[C@@H](CC(N)=O)C(=O)N[C@@H]([C@@H](C)O)C(=O)N[C@@H](C)C(=O)N[C@@H]([C@@H](C)O)C(=O)N1)[C@@H](C)O)C(C)C)C(=O)N[C@@H](CC(C)C)C(=O)N1CCC[C@H]1C(=O)N1CCC[C@H]1C(=O)N[C@H](C(=O)N[C@@H](CCCNC(=N)N)C(=O)N[C@H](C(=O)NCC(=O)N[C@@H](CO)C(=O)N[C@@H](CC(N)=O)C(=O)N[C@H](C(=O)N[C@@H](Cc1ccc(O)cc1)C(N)=O)[C@@H](C)O)C(C)C)[C@@H](C)O` [Peptide 71, C18diacid-γE-K[CNTATC]ATQRLANFLVHSS(Aib)NFGPILPPTRVGSNTY-amide] ({C18 diacid-γGlu}-KCNTATCATQRLANFLVHSS[Aib]NFGPILPPTRVGSNTY-NH2; disulfide 2-7), for which the “Ratio (selectivity hAMYR vs hCTR, ratio of EC50 values at the two receptors)” value in data set [1] (EC50 hCTR / EC50 hAMYR3) was 7. In addition, the pEC50 in data set [1] is 9.68; in data set [2] it was 8.86.
Turning to “amylin (KCNTATCATQRLANFLVHSSNNFGAILSSTNVGSNTY; not fully specified (C-terminus, bridges); cysteine pairing not given here; UniProt P10997 34-70, looked up) [native peptide hormone of which pramlintide is a synthetic analogue]”, in data set [3], the “terminal half-life of amylin in rats” value is recorded as “around 13 minutes”.
